From patent EP0172962A1, “Prostaglandins” (ONO PHARMACEUTICAL CO., LTD., priority 1984, dated 1986) come the findings set out here.

In general, LD50 refers to the dose at which mortality reaches 50%. Higher therefore signals lower toxicity. By IC50 is commonly meant the midpoint of a concentration-inhibition curve. A higher IC50 goes with weaker potency.

In one data set the test system is ICR male mice. Description: Test on increase of white blood cell (hematological test). Type of data set: in vivo. The conditions noted are these: 3 mg/kg i.p. once a day for 14 days, blood collected on the day following the final administration. Here is the method: The experimental methods and results are described below. A solution of a compound of the present invention in ethanol was diluted with l% Tween 80 (registered Trade Mark) and the solution was intraperitoneally administered to ICR male mice of 6-7 weeks old once a day for 14 days. On the day following the final administration, the blood was collected by cardiac puncture with Anglot® (containing heparin and EDTA) as an anticoagulant. The blood was diluted with Seruento (registered Trade Mark), and the numbers of white blood cells and red blood cells were counted by a Micro Cell Counter (model CC-120).

The nature of a further data set: Acute toxicity. The settings on record: in vivo, iv; intravenously.
Data set [1] concerns cells originated from human mouth tumour (KB-cells). The data set can be described thus: Test on inhibition of proliferation using cells originated from human mouth tumour (KB-cells). Type of data set: cell-based. The conditions noted are these: 96 h, stationary culture at 37°C for 4 days, Trypan Blue staining, surviving cell number relative to control. Here is the method:
The experimental methods and the results are described below. Test on Inhibition of Proliferation Using Cells Originated
. The cells originated from human mouth tumour (KB-cells) were added to Eagle's MEM culture solution containing 10% bovine fetal serum, the number of cells in the culture solution was adjusted to 1 ×10^5 cells/ml, a solution in ethanol of compounds of the present invention was added to give a concentration of 5 µg/ml or below and the mixture was subjected to stationary culture at 37°C for 4 days. As a control, a culture solution containing 0.1% of ethanol was similarly cultured. After the culture, the cells were stained by the Trypan Blue staining method, and the surviving cell number was measured to determine the IC50 value from the degree of inhibition relative to the control.

Converted amounts (≈) assume the structure as drawn. Bounds are passed on as bounds.

Consider `CCCCC[C@H](O)/C=C/[C@H]1C(=O)C=C[C@@H]1C/C=C\CCCC(=O)NCCCNC(=O)CCC/C=C\C[C@H]1C=CC(=O)[C@@H]1/C=C/[C@@H](O)CCCCC` [Example 1(e), N,N'-bis[(5Z,13E)-(15S)-11-oxo-15-hydroxy-prosta-5,9,13-trienoyl]trimethylenediamine], for which the “RBC (x10^4/mm^3)” value with ICR male mice (red blood cells) is on record as 793 ± 22.5 (p <0.001) x10^4/mm^3. Moreover, the “WBC (x10^2/mm^3)” value in the data set with ICR male mice (white blood cells) is reported as 158 ± 17.0 (p <0.05) x10^2/mm^3. Also, in “Acute toxicity”, the 50% lethal dose (LD50) is greater than 100 mg/kg.
For the molecule `CCCCC[C@H](O)/C=C/[C@H]1C(=O)C=C[C@@H]1C/C=C\CCCC(=O)NCCCCNC(=O)CCC/C=C\C[C@H]1C=CC(=O)[C@@H]1/C=C/[C@@H](O)CCCCC` [Example 1(f)], the half-inhibitory concentration (IC50) in data set [1] came to 1.17 µg/mL (≈ 1.62 µM).
Still for that read-out and setting: for `CCCCC[C@H](O)/C=C/[C@H]1C(=O)C=C[C@@H]1C/C=C\CCCC(=O)NCCOC(=O)CCC/C=C\C[C@H]1C=CC(=O)[C@@H]1/C=C/[C@@H](O)CCCCC` [Example 1(g)] the value was 1.8 µg/mL (≈ 2.59 µM).
The same measure, in the same setting: for `CCCCC[C@H](O)/C=C/[C@H]1C(=O)C=C[C@@H]1C/C=C\CCCC(=O)OCCOC(=O)CCC/C=C\C[C@H]1C=CC(=O)[C@@H]1/C=C/[C@@H](O)CCCCC` [Example 1(h)] the value was less than 1 µg/mL; for `CCCCC[C@H](O)/C=C/[C@H]1C(=O)C=C[C@@H]1C/C=C\CCCC(=O)NCCNC(=O)CCC/C=C\C[C@H]1C=CC(=O)[C@@H]1/C=C/[C@@H](O)CCCCC` [Example 1], 0.87 µg/mL (≈ 1.26 µM); for `CCCCC[C@H](O)/C=C/[C@H]1C(=O)C[C@H](O)[C@@H]1C/C=C\CCCC(=O)NCCCNC(=O)CCC/C=C\C[C@H]1[C@@H](O)CC(=O)[C@@H]1/C=C/[C@@H](O)CCCCC` [Example 3(a)], 1.9 µg/mL (≈ 2.56 µM).
The same measure, in the same setting: for `CCCCCC=CC=C1C(=O)C=CC1CC=CCCCC(=O)NCCNC(=O)CCCC=CCC1C=CC(=O)C1=CC=CCCCCC` (stereo not drawn) [Example 4] the value was 0.47 µg/mL (≈ 0.715 µM).
